Results as given in US12180499B2, “Compositions and methods for impeding transcription of expanded microsatellite repeats” (University of Florida Research Foundation, Inc., priority 2016, dated 2024).
“Also recorded” adds a separate entry of the source.

Tests used:
[1] = test system: poly-Ala RAN peptides expressed from DM1 CTG repeats; assay: Western blot of FLAG-tagged poly-Ala RAN peptide in HEK293T; assay type: cell-based, human
Text: The CTG, CCTG, and G4C2 repeats associated with DM1, DM2, and C9ALS/FTD, respectively, undergo repeat-associated non-ATG (RAN) translation. dCas9-mediated transcriptional repression could also yield reduced RAN protein abundance. […] Importantly, RAN protein was not reduced in the presence of (CAG)6 gRNA alone without dCas9 (FIG. 14D). […] To test effects of dCas9 on levels of poly-GlyPro translated from G4C2 repeats, two gRNAs were designed with NGG PAMs: (C4G2)3 (SEQ ID) NO: 10) that would target the non-template strand and (G4C2)3 (SEQ ID NO: 11) that would target the template strand.
HEK293Tcells were transfected with one of the following plasmids that express tagged RAN translated products: pcDNA-6×Stop-(CTG)150-3×(FLAG-HA-cMyc-His), pcDNA-6×Stop-(CCTG)137-3×(FLAG-HA-cMyc-His) or pcDNA-6×Stop-(G4C2)120-3×(FLAG-HA-cMyc-His). These cells were co-transfected with the pXdCas9 plasmid expressing the dCas9 protein, and U6 expression vectors expressing the control gRNA or gRNA's targeting either strand of the CTG, CCTG and G4C2 repeats ((CAG)6 (SEQ ID NO:1) or (CUG)6 (SEQ ID NO:3) gRNAs, (CAGG)5 (SEQ ID NO:6), (AGGC)5 (SEQ ID NO:7), (GCAG)5 (SEQ ID NO:9), or (CCUG)5 (SEQ ID NO: 15) gRNAs and (C4G2)3 (SEQ ID NO:10) or (G4C2)3 (SEQ ID NO:11) gRNAs, respectively).
72 hours after transfection, cells in each well of a 12-well tissue culture plate were gently rinsed 1× with PBS and lysed in 200 ul of RIPA Buffer (50 mM Tris-Cl pH 7.4, 150 mM NaCl, 0.1% Na-Deoxycholate, 1% NP-40, 0.5% SDS) with protease inhibitors for 30 minutes on ice. Genomic DNA was sheared by 8-10 passages through a 21-gauge needle. The resulting lysate was centrifuged at 18,000×g for 15 min and the supernatant was collected. The protein concentration of the lysate was determined using Pierce™ BCA Protein Assay. […] After the membrane was incubated with anti-mouse and anti-rabbit HRP (1:10,000) for 2 hours at room temperature, the bands were detected using the SuperSignal™ West Femto Maximum Sensitivity Substrate as per manufacturers protocol (Zu et al., 2011).

[2] = test system: HeLa cells expressing (CUG)480 repeats; assay: FISH-IF of CUG RNA foci in HeLa cell-based model of DM1; parameters: species or system human; conditions: with dCas9; vs control gRNA
Text: dCas9-mediated transcriptional inhibition rescues splicing defects and blocks RAN translation in cell-based models of DM and C9ALS/FTD. Downstream symptoms of many repeat expansion diseases are caused by the expression of toxic RNA species, which sequesters RNA binding proteins necessary for cellular functions, causing downstream changes to the transcriptome and proteome. To assess whether dGas9-mediated transcriptional silencing can rescue molecular and cellular phenotypes in disease models, a HeLa cell-based model of DM1 was used, in which (CUG)480 (SEQ ID NO:26) repeats are expressed from a plasmid. […] Rescue of MBNL-dependent splicing misregulation, characteristic of DM1 cells was measured, using a splicing minigene reporter containing MBNL1 exon 5. The percent spliced in (psi, Ψ) of this exon is regulated by MBNL proteins, and changes from 10% in healthy HeLa cells to −70% in cells expressing (CUG)480 repeats. Co-transfection of dCas9 and (CAG)6 (SEQ ID NO: 1) gRNA partially rescued splicing dysregulation, reducing Ψ to −35% (FIG. 8C). […] Splicing defects in DM1 depend on total CUG repeat load; Ψ values for MBNL1 exon 5 increased with the length of the CTG repeat tract transfected into cells (FIG. 8D).
Plasmid DNA transfections of HeLa and HEK293T cells were performed using Trans-IT LT1 (MirusBio) as per manufacturer's instructions. […]

For “(CAG)6 gRNA: guide RNA SEQ ID NO:1 targeting CTG repeats (non-template strand, CAG PAM), co-expressed with deactivated SpCas9 (guide CAGCAGCAGCAGCAGCAG; listed as DNA, chemistry not fully specified; listed as Mus musculus)”, the “FLAG-tagged poly-Ala RAN peptide level” value ([1]; gRNA alone without dCas9) was “not reduced”, the “FLAG-tagged poly-Ala RAN peptide level” value ([1]; with dCas9, HEK293T) was “dramatically reduced” and the “number of foci per cell” value [2] was “reduction in the number of foci per cell”. The “percentage of cells showing CUG-containing RNA foci” value [2] was “reduction in the percentage of cells showing CUG-containing RNA foci; also recorded: reduction in the percentage of cells with RNA foci”.
